These results are taken from patent US8546537B2, “Streptavidin having low immunogenicity and use thereof” (The University of Tokyo, priority 2009, dated 2013).

A short description of data set [1]: Kinetics analysis of interaction between streptavidin protein and biotin using Biacore biosensor. The data set is classed as binding. The conditions noted are these: for Kd: Biacore 3000, obtained from kd/ka, read-out: Dissociation constant Kd. On the procedure: As a ligand (a substance to be attached to a sensor chip) used for a Biacore (registered trademark) biosensor, an anti-mouse IgG antibody (manufactured by GE Healthcare Biosciences) was used. On the other hand, as analytes (substances to be supplied to the flow channel system), a biotinylated mouse antibody and various types of mutant streptavidins were prepared, and intermolecular interaction was then analyzed using Biacore (registered trademark) 3000 (a biosensor based on the principle of surface plasmon resonance; manufactured by GE Healthcare Biosciences). The anti-mouse IgG antibody was immobilized on all of the flow cells of a CM5 sensor chip according to an amine coupling method. The amount of the antibody immobilized on each flow cell was 8000 RU. Subsequently, as references, non-biotinylated mouse antibodies were captured onto Flow Cells 1 and 3, and biotinylated mouse antibodies were captured onto Flow Cells 2 and 4. Various types of streptavidins were loaded in a running buffer (HBS-EP; manufactured by GE Healthcare Biosciences) on Flow Cells 1 and 2, or 3 and 4, at a flow rate of 20 μl/min for 2 minutes. Thereafter, dissociation of each sample was monitored for 7 minutes. Thereafter, a reproduction operation was carried out using a 10 mM glycine-HCl buffer (pH 1.7) (manufactured by GE Healthcare Biosciences), and repeat measurement was then carried out. Using the analysis software BIAevaluation ver. 4.1, a reaction kinetics analysis was performed on a 1:1 binding model based on the obtained sensorgram, so as to calculate an association rate constant (ka) and a dissociation rate constant (kd). A dissociation constant (Kd) was obtained from kd/ka.
The results of the kinetics analysis of the intermolecular interaction of a recombinant streptavidin and a biotin, which was carried out using Biacore (registered trademark) 3000 (a biosensor based on the principle of surface plasmon resonance; manufactured by GE Healthcare Biosciences), are as shown in Table 2.
(In general: Surface plasmon resonance follows binding to a sensor surface in real time, without labels.)

For data set [2] the following is noted: background art; cited from earlier work.
The mark [3] stands for this setting: Biacore 3000, biotinylated mouse antibody captured, 1:1 binding model.

In general, Kd refers to the free concentration of one partner at which half of the binding sites on the other are occupied at equilibrium, for simple one-to-one binding. Consider “cSA_WT: wild-type (native) core streptavidin, amino acid sequence SEQ ID NO: 2 [reference compound]”, for which, in data set [1] (setting [3]), the “Association rate constant ka” value is recorded as 2.81 × 10^5 M^−1 S^−1 and the “Dissociation rate constant kd” value is given as 6.32 × 10^−5 S^−1. Also, in data set [1], the Kd came to 0.225 nM. Besides, the isoelectric point result in data set [2] is reported as “around the neutral range”.
“Avidin: basic glycoprotein derived from albumen”: the isoelectric point result in data set [2] is “exceeds 10”.
As for “mcSA_W120A: streptavidin mutant named W120A in Table 2; not described further [reference compound]”, the “Dissociation rate constant kd” value in data set [1] (setting [3]) is on record as 7.49 × 10^−4 S^−1. Moreover, the Kd in data set [1] is 3.53 nM.
